Values quoted from earlier work in patent US6066628A, “Non-iron metalloporphyrins and methods of use” (Emory University, priority 1998, dated 2000).

Test system: patients
Conditions: patients with compromised kidney function, high dosages; cited from earlier work

In the case of `O=[N+]([O-])[O-].O=[N+]([O-])[O-].O=[N+]([O-])[O-].[Ga+3]` [gallium nitrate, Gallium nitrate], the “major complication of treatment” value is given as “Reversible nephrotoxicity”.
